Laboratory results as given in article PMC13183915, “A platinum butterfly effect: small changes turn an anticancer drug into a non-toxic metalloantibiotic with in vivo efficacy” (npj Antimicrobials and Resistance, 2026).
Values after ≈ are worked out from the molar mass of the structure shown. Like-named read-outs stand apart in the source and are kept apart here.

Key:
MSSA ATCC 29213 = test: Broth microdilution MIC, MSSA ATCC 29213; type: cell-based, S. aureus; conditions: Staphylococcus aureus
Experimental: The data is given in supporting information (Table S5). Before starting the experiment, a single colony was picked from MHA plate, inoculated in MHBII and incubated overnight at 37 °C with shaking for 18–24 h to get the starter culture. Antibiotic susceptibility testing was conducted according to the CLSI (Clinical & Laboratory Standards Institute) guidelines using the broth microdilution assay. 10 mg/mL stock solutions of test compounds were prepared in DMSO. Bacterial cultures were inoculated in MHBII and optical density (OD) was measured at 600 nm, followed by dilution to achieve ~10^6 CFU/mL. The compounds were tested from 64 to 0.5 mg/L in two-fold serial diluted fashion with 2.5 μL of each concentration added to well of a 96-well round bottom microtiter plate. Later, 97.5 μL of bacterial suspension was added to each well containing either test compound or appropriate controls. […] The MIC is defined as the lowest concentration of the compound at which there is absence of visible growth. For each test compound, MIC determinations were carried out independently three times using duplicate samples.

S. aureus ATCC 29213 = test: Drug interaction study (chequerboard assay); type: cell-based; conditions: for MIC: Staphylococcus aureus, ATCC29213; for FIC B: antibiotic in combination with Pt1 / alone; for FIC (FICA+FICB) / Interference: combination with Pt1; for Interference: synergistic ≤0.5, indifferent >0.5 to 4, antagonistic >4
Experimental: All compounds were freshly prepared for the experiment. […] Following incubation, the fractional inhibitory concentration index (FICI) was calculated with the formula FICI = […], whereby FICA = MIC of drug A in combination/MIC of drug A alone and FICB = MIC of drug B in combination/MIC of drug B alone. A drug combination is considered synergistic when ∑FICI is ≤0.5, indifferent when ∑FICI is >0.5 to 4, and antagonistic when ∑FICI is >4.

[1] = test system: 36th Passage S.aureus ATCC 29213 in the presence of Pt-1; test: microbe, parasite or virus in culture; type: cell-based; conditions: Staphylococcus aureus, ATCC29213
Experimental: (§1) The MICs of the passaged cultures were determined every 3 days and compared to that of wild type S. aureus ATCC 29213. MIC changes were recorded for 36 passages.

[2] = test system: 36th Passage S.aureus ATCC 29213 in the presence of Levofloxacin; test: Antibiogram of strain passaged with levofloxacin; type: cell-based; conditions: Staphylococcus aureus, ATCC29213
Experimental: as §1

[3] = test system: methicillin-sensitive Staphylococcus aureus (MSSA), clinical isolate; test: MIC assay, MSSA clinical isolate; type: cell-based; conditions: MSSA clinical isolate
[4] = test system: methicillin-resistant S. aureus (MRSA) COL; test: MIC assay, MRSA COL; type: cell-based, Staphylococcus aureus; conditions: MRSA COL
Bacillus subtilis MW168 = test: MIC assay, B. subtilis MW168; type: cell-based; conditions: B. subtilis MW168
Escherichia coli W3110 = test: MIC assay, E. coli; type: cell-based; conditions: E. coli, Table S2
S. aureus (CCUG 62707) = test: MIC of COD ligand and Pt precursor, S. aureus CCUG 62707; type: cell-based; conditions: S. aureus CCUG 62707
E. coli (NCTC 13476) = test: MIC, E. coli NCTC 13476 (with or without PMBN); type: cell-based; conditions: E. coli NCTC 13476
B. subtilis 168CA = test: ROS scavenger assay (modified MIC assay); type: cell-based, Bacillus subtilis
Experimental: LB media were prepared to contain either 10 mM tiron, 150 mM thiourea, 10 mM tiron and 150 mM thiourea, or no […]. Serial two-fold dilutions of the different antibiotics were prepared in the respective media and transferred to 96-well plates. […] The OD600 was meassured in a BMG Clariostar Plus plate reader.

[5] = S.aureus ATCC 29213 (unpassaged), Table S9, read-out: MIC
[6] = compound alone, Table S8, read-out: MIC

For CC(=O)NC[C@H]1CN(c2ccc(N3CCOCC3)c(F)c2)C(=O)O1 [Linezolid], the MIC (MSSA ATCC 29213; [5]) was 2 µg/mL (≈ 5.93 µM), the MIC (S. aureus ATCC 29213; [6]) was 2 µg/mL and the “FIC B” value (S. aureus ATCC 29213) was 1. For the same compound, the “FIC (FICA+FICB)” value (S. aureus ATCC 29213) was 2, the Interference (S. aureus ATCC 29213) was “no interaction” and the MIC [1] was 2 µg/mL (≈ 5.93 µM).
C[C@@H](O)[C@H]1C(=O)N2C(C(=O)O)=C(S[C@@H]3CN[C@H](C(=O)N(C)C)C3)[C@H](C)[C@H]12 [Meropenem] was tested, and the MIC (MSSA ATCC 29213; [5]) was 0.25 µg/mL (≈ 0.652 µM), the MIC (S. aureus ATCC 29213; [6]) was 0.25 µg/mL and the “FIC B” value (S. aureus ATCC 29213) was 1. The “FIC (FICA+FICB)” value (S. aureus ATCC 29213) was 2, the Interference (S. aureus ATCC 29213) was “no interaction” and the MIC [1] was 0.25 µg/mL (≈ 0.652 µM). For the same compound, the MIC [2] was 0.125 µg/mL (≈ 0.326 µM).
CN(C)c1ccc(O)c2c1C[C@H]1C[C@H]3[C@H](N(C)C)C(O)=C(C(N)=O)C(=O)[C@@]3(O)C(O)=C1C2=O [Minocycline] was tested, and the MIC (MSSA ATCC 29213) was 0.0625 µg/mL (≈ 0.137 µM), the MIC (S. aureus ATCC 29213) was 0.125 µg/mL and the “FIC B” value (S. aureus ATCC 29213) was 1. The “FIC (FICA+FICB)” value (S. aureus ATCC 29213) was 2, the Interference (S. aureus ATCC 29213) was “no interaction” and the MIC [1] was 0.125 µg/mL (≈ 0.273 µM).
For O=C1[O][Pt]2([NH][C@@H]3CCCC[C@H]3[NH]2)[O]C1=O [Oxaliplatin], the MIC [3] was > 100 µM, the MIC [4] was > 100 µM and the MIC (Bacillus subtilis MW168) was > 100 µM. For the same compound, the MIC (Escherichia coli W3110) was > 100 µM.
[Cl][Pt-2]([Cl])([Cl])[Cl].[K+].[K+] [Pt K2PtCl4, K2PtCl4] was tested, and the MIC (S. aureus (CCUG 62707)) was > 200 µM and the MIC (E. coli (NCTC 13476)) was > 200 µM.
With CO[C@H]1/C=C/O[C@@]2(C)Oc3c(C)c(O)c4c(O)c(c(/C=N/N5CCN(C)CC5)c(O)c4c3C2=O)NC(=O)/C(C)=C\C=C\[C@H](C)[C@H](O)[C@@H](C)[C@@H](O)[C@@H](C)[C@H](OC(C)=O)[C@@H]1C [Rifampicin] the MIC (MSSA ATCC 29213) was 0.0156 µg/mL (≈ 0.019 µM), the MIC (S. aureus ATCC 29213; [6]) was 0.0078 µg/mL and the “FIC B” value (S. aureus ATCC 29213) was 1. For the same compound, the “FIC (FICA+FICB)” value (S. aureus ATCC 29213) was 2, the Interference (S. aureus ATCC 29213) was “no interaction” and the MIC [1] was 0.0156 µg/mL (≈ 0.019 µM).
OO [hydrogen peroxide] was tested, and the “MIC fold change (increase) with scavenger” value (B. subtilis 168CA; medium containing 10 mM tiron (superoxide scavenger)) was “not significantly affected”, the “MIC fold change (increase) with scavenger” value (B. subtilis 168CA; medium containing 150 mM thiourea (hydroxyl radical scavenger)) was 14 fold and the “MIC fold change (increase) with scavengers” value (B. subtilis 168CA; medium containing both tiron and thiourea) was “no additive effect”.
